From article PMC5895803, “Inhibition of cancer stem cell like cells by a synthetic retinoid” (Nature Communications, 2018)
Where “and” joins values, the source holds several entries; their conditions need not be identical. Equal values may be shown once.

Legend:
[1] = system: unselected human cancer cells; assay: Unselected human cancer cells on 2D rigid dishes; type: cell-based; details: 10 μM, 48 hours
Protocol: Supplementary Figure 20. WYC-209 detaches adherent human cancer cells on rigid plastic. (a-e): human melanoma MDA-MB-435s (a), human breast cancer MCF-7 (b), human ovarian cancer A2780 (c), human malignant melanoma A375 (d), and human lung cancer A549 (e) were cultured on rigid plastics and treated with 0.1, 1, or 10 μM WYC-209, WYC-209A, or WYC-209B and cell numbers were measured for 48 hours. Cell nuclei were stained with DAPI. None: medium only; DMSO: medium containing 0.1% DMSO. Cell numbers per view field were quantified. Mean ± s.e.m.; n= 5 samples; 3 separate experiments; *P<0.05; ** P<0.01; *** P<0.001 […]
(§1) (1 picture or pasted object on this page, not shown here)

[2] = system: B16-F1 TRCs lung metastases; assay: Lung metastasis of B16-F1 TRCs in immune-competent mice; type: in vivo, C57BL/6 mice; details: for Metastases in H&E-stained organ sections: 0.022 mg kg-1; for Mice with lung metastases: 8 mice per group, day 30
Text: Four- to six-week-old female and male C57BL/6 mice were used in mice experiment. Mice were randomized into different groups. In metastasis experiment, B16-F1 cell spheroids were selected from 3D 90-Pa fibrin gels and pipetted to single cells. These TRCs were harvested and the cell number was counted under microscopy. The cells were then suspended in PBS with appropriate cell density. Thirty thousand TRCs were intravenously injected into the tail vein of each wild-type C57BL/6 mouse. Five days later, inoculated mice were intravenous implanted with 0.022 mg kg^−1 WYC-209, 0.22 mg kg^−1 WYC-209, or 0.1% DMSO every two days. The mice were euthanized and examined for lung tumor formation at day 30. In treated TRCs injected in vivo experiments, B16-F1 cells were seeded into 3D 90-Pa fibrin gels and treated with 10 µM WYC-209 or 0.1% DMSO on day 3, then isolated treated TRCs colonies on day 5 and pipetted into single cell. 30,000 of TRCs were intravenously injected into the tail vein of each wild-type C57BL/6 mouse. No blinding was performed in the mice experiments.
Lung, liver, spleen, bone, stomach, and brain of C57BL/6 mice were fixed by 4% paraformaldehyde then were embedded in paraffin and cut to ~4 µm thick sections by Thermo FINESSE 325. Organ sections were stained by H&E and slides were evaluated for tumor formation by a veterinary pathologist blinded to sample identity.

[3] = system: TRCs of A2780, A549, MCF-7, MDA-MB-435s, A375; assay: Colony growth of TRCs of five human cancer cell lines (summary statements); type: cell-based
Protocol: Salmon fibrinogen and thrombin were purchased from Reagent Proteins (CA, USA). 3D fibrin gels were prepared as described previously[5],[6]. In brief, fibrinogen was diluted into 2 mg mL^−1 with T7 buffer (pH 7.4, 50 mM Tris, 150 mM NaCl). Cells were detached from 2D rigid dishes and cell density was adjusted to 10^4 cells per mL. Fibrinogen and cell solution mixture were made by mixing the same volume of fibrinogen solution and cell solution, resulting in 1 mg mL^−1 fibrinogen and 5000 cells per mL in the mixture fibrin gels. A volume of 50 μL cell/fibrinogen mixture was seeded into each well of 96-well plate and mixed well with pre-added 1 μL thrombin (100 U mL^−1). The cell culture plate was then incubated in 37 °C cell culture incubator for 10 min. Finally, 200 μL of DMEM medium containing 10% FBS and antibiotics was added.
Control B16-F1, A2780, A549, MCF-7, MDA-MB-435s, and A375 cells were cultured in 90-Pa fibrin gels to form round colonies and then treated with 0.1, 1, and 10 μM WYC-209, WYC-209A, and WYC-209B or 0.1% DMSO on day 3, which was washed out with pre-warmed PBS on day 4 with fresh medium, and then kept culturing till day 7 or day 9.

HaCaT cells = assay: Non-cancerous human epidermal HaCaT cells, 2D rigid dishes and 3D soft fibrin gels; type: cell-based; details: for HaCaT cell numbers on 2D rigid plastic / HaCaT colony growth in 3D soft fibrin gel: 10 μM; for HaCaT colony growth in 3D soft fibrin gel: day 7; for Inhibitory effects towards non-cancerous HaCaT cells: 2D rigid dishes and 3D soft fibrin gels
Protocol: Supplementary Figure 21. WYC-209 has less inhibitory effects on non-cancerous human epidermal cell line HaCaT. (a) Non-cancerous human epidermal HaCaT cells were seeded into 3D soft fibrin gel and treated with 0.1, 1, or 10 μM of WYC-209, WYC-209A, or WYC-209B on day 0, and colony sizes were quantified on day 7.
Bright field images were representative images of colonies on day 7. Scale bars, 50 μm. (b) Quantitation of cell numbers per view field of HaCaT cells plated on 2D rigid plastic. Cell nucleus were stained with DAPI. None: medium only; DMSO: medium containing 0.1% DMSO. Mean ± s.e.m.; n= 5 samples; 3 separate experiments; * P<0.05, *** P<0.001 (Student’s t-test). Note that even at 10 μM concentration no […]
compounds have less inhibitory effects on these non-cancerous human epidermal […]
as §1

[4] = system: cleaved (active) caspase-3 and PARP; assay: Western blotting of cleaved caspase-3 and PARP; type: cell-based, murine; details: 10 μM, 24 h
Text: To quantify the expression levels of RARα, RARβ, RARγ, caspase-3, cleaved caspase-3, and cleaved PARP, cells were lysed with RIPA lysis buffer. […] Primary antibodies were detected with mouse anti-Rabbit IgG-HRP (1:1000, Santa Cruz, sc-2357), donkey anti-goat IgG-HRP (1:1000, Santa Cruze, sc-2020), or anti-Mouse IgG-HRP (1:1000, Santa Cruz, sc-2005).
Supplementary Figure 37. WYC-209 induces cleaved caspase-3 and PARP expressions.
(a) Representative images of cleaved PARP and cleaved caspase-3 protein expressions in control B16-F1 cells cultured on 2D rigid dishes and treated 0.1% DMSO, 1 or 10 µM WYC-209, WYC-209A or WYC-209B for 24 h. (b) Representative images of cleaved PARP and cleaved caspase-3 protein expression of control B16-F1 cells seeded in 3D soft fibrin gels for […]
hours. (c, d) Quantification of expression levels of cleaved PARP and cleaved caspase-3 in (a). (e, f) Quantification of expression levels of cleaved PARP and cleaved caspase-3 in (b).
All values are normalized by GAPDH. Mean ± s.e.m.; 3 separate experiments; ns, not […]
as §1

B16-F1 TRCs = assay: Colony growth of B16-F1 TRCs in 90-Pa 3D soft fibrin gels; type: cell-based, murine; details: for IC50 lower / potency higher than that of Tazarotene: B16-F1 TRC growth; for inhibition at 10 µM / IC50: Mus musculus; for inhibition at 10 µM: B16-F1, 10 μM, treated on day 0, day 5; for IC50: B16-F1 in 90-Pa fibrin gels, treated on day 0, colony size on day 5; for Growth after re-plating into new soft fibrin gels without compound: washed out
[5] = 0.022 mg kg−1 i.v. every two days from day 5 after 30,000 TRCs i.v.
[6] = 0.22 mg kg−1 i.v. every two days from day 5 after 30,000 TRCs i.v.
[7] = pretreated with 10 µM, at least 5 days

SMILES	Growth of unselected human cancer cells on 2D rigid dishes [1]	Metastases in H&E-stained organ sections [2]	Mice with lung metastases [2, 5]	Mice with lung metastases [2, 6]	Colony growth after washout and re-plating ([3]; pretreated at 10 μM)	Colony growth after washout and re-plating ([3]; pretreated at 0.1 or 1 μM)	HaCaT cell numbers on 2D rigid plastic (HaCaT cells)	HaCaT colony growth in 3D soft fibrin gel (HaCaT cells)	Inhibitory effects towards non-cancerous HaCaT cells (HaCaT cells)	Cleaved (active) caspase-3 and PARP [4]	IC50 lower / potency higher than that of Tazarotene (B16-F1 TRCs)	inhibition at 10 µM (B16-F1 TRCs)	IC50 (B16-F1 TRCs)	Growth after re-plating into new soft fibrin gels without compound (B16-F1 TRCs; [7])	Growth after re-plating into new soft fibrin gels without compound (B16-F1 TRCs; pretreated with 0.1 or 1 μM)	further results
CCOC(=O)c1cnc(C#Cc2ccc3c(c2)C(C)(C)CC[S@+]3[O-])nc1 [WYC-209A]	completely blocked cell growth	exhibited metastases in the lungs but not in other organs	three out of eight	one out of eight	completely inhibited	partially inhibited	no reduction in cell numbers	still some colony growth	much less inhibitory effects	increase	about 10 fold	100%	150 nM	none of the cells grew at all	some tumor cell growth	
CCOC(=O)c1cnc(C#Cc2ccc3c(c2)C(C)(C)CC[S@@+]3[O-])nc1 [WYC-209B]	completely blocked cell growth	exhibited metastases in the lungs but not in other organs	three out of eight	one out of eight	completely inhibited	partially inhibited	no reduction in cell numbers	still some colony growth	much less inhibitory effects	increase	about 10 fold	100%	220 nM	none of the cells grew at all	some tumor cell growth	
CCOC(=O)c1cnc(C#Cc2ccc3c(c2)C(C)(C)CC[S+]3[O-])nc1 (stereo not drawn) [WYC-209]	completely blocked cell growth		four out of eight and 4/8	one out of eight and 1/8	completely inhibited	partially inhibited	no reduction in cell numbers	still some colony growth	much less inhibitory effects	increase	about 10 fold	100%	190 nM	none of the cells grew at all	some tumor cell growth	Average lung weight versus DMSO group ([2]; 0.22 mg kg−1): less; Lung metastases of melanoma TRCs abrogated ([2]; 0.22 mg kg−1): 87.5%; Lung metastases in untreated mice injected with pretreated TRCs ([2]; TRCs pretreated with 10 µM in fibrin gels day 3-5, 30,000 TRCs i.v., 8 mice): no lung metastases; IC50 ([3]; Homo sapiens, 0 h, treated on day 0, read-out: IC50 (range over five human TRC types)): 100 to 520 nM; inhibition at 10 µM ([3]; Homo sapiens, 10 μM, read-out: Growth inhibition of all human TRCs): 100%; TRC growth after drug washout ([3]; treated day 3, washed out day 4, 5 days after washout): failed to resume growth; Duration of effect after washout (long-lasting) (B16-F1 TRCs; melanoma TRCs re-plated in fresh medium without compound): > 5 days
